US10744127B2, “MDR-reversing 8-hydroxy-quinoline derivatives” (MAGYAR TUDOMÁNYOS AKADÉMIA TERMÉSZETTUDOMÁNYI KUTATÓKÖZPONT, priority 2016, dated 2020)
Where two headings read alike, the source gives them in different places.

Tests used:
[1] = test system: P-gp-expressing MES-SA/Dx5 cells; test: P-gp switch assay (Calcein AM); assay type: cell-based, human; settings: for Fraction of P-gp-negative cells (P3) in the population / Fraction of P-gp-positive cells (P4) in the population: MES-SA/Dx5, single dose at IC20 (killing 80% of the cells), surviving population at 80% confluence, Calcein AM; for Loss of P-gp expression in MES-SA/Dx5 cells: single treatment (FIG. 1, Table 6)
Method: One million P-gp-expressing MES-SA/Dx5 cells were plated in a T25 cell culture flask. After 24 hours the compound of interest was added directly to the cells at a concentration corresponding to the IC20 value (killing 80% of the cells). After 5 days the culture media was removed, the cells were washed with PBS and the culture medium was exchanged. Cells were monitored daily and the recovery was recorded. The medium was changed every 5 days until the confluence of the cells reached 80%. At 80% confluence the cells were removed by gentle trypsinization, counted by an automated cell counter and stained with Calcein AM, a cellular dye able to detect the function of P-gp (Homolya 1993). P-gp-positivity was evaluated based on the ability of P-gp-expressing cells to extrude Calcein AM.

[2] = test system: MES-SA and MES-SA/Dx5 cells; test: Selective toxicity in the presence of the P-gp inhibitor tariquidar; assay type: cell-based, human; settings: for SR (TQ): selectivity ratio in the presence of tariquidar (1 μM); for Selective toxicity in the presence of P-gp inhibitors: tariquidar
Method: In the presence of tariquidar (an inhibitor of P-gp function), the toxicity of the compounds selectively diminishes in multidrug-resistant MES-SA/Dx5 cells, while the toxicity is unchanged against parental MESSA cells, which is reflected by a decrease in the selectivity ratio (SR (TQ)).
To investigate the contribution of P-glycoprotein to the cytotoxic effect of a compound, cell survival was measured in the presence of the P-glycoprotein inhibitor tariquidar (1 μM). Tariquidar (CAS 206873-63-4) can be obtained e.g. from Selleck, Houston, USA.

[3] = test system: MES-SA cell line; test: Cytotoxicity, PrestoBlue cell viability assay, parental MES-SA; assay type: cell-based; settings: Homo sapiens; parental MES-SA cell line (Table 2a)
Method: (§1) The human uterine sarcoma cell line MES-SA and its doxorubicin resistant counterpart MES-SA/Dx5 were obtained from ATCC (MES-SA: No. CRL-1976™, MES-SA-Dx5: No. CRL-1977™). MES-SA/Dx5 cells express high levels of P-gp, and therefore are multidrug resistant (MDR). Cells were cultured in DMEM supplemented with 10% FBS, 5 mmol/L glutamine and 50 unit/mL penicillin and streptomycin (Life Technologies).
(§2) Cell survival was measured by the PrestoBlue® Cell Viability Reagent (Life Technologies, USA). Cells were seeded in 100 μl medium at a density of 5000 cells/well in 96-well plates; the serially diluted drug was added the following day. Cells were then incubated for 72 hours at 37° C. in 5% CO2; the drug containing medium was removed, and the PrestoBlue® reagent was added according to the manufacturer's instructions. Fluorescence of the cells was measured by a Perkin Elmer EnSpire multimode plate reader or Perkin Elmer Victor X3 microplate reader. Data were background corrected and normalized to untreated cells. Curves were fitted with the help of Prism software using the sigmoidal dose-response model. Curve fit statistics were used to determine IC50 values. Differences between the IC50 values of the respective cell lines were analyzed by two-sided […] unpaired Student's t test and results were considered statistically significant at a P value of <0.05 (*) or 0.01 (**).

[4] = test system: MES-SA and multidrug-resistant MES-SA/Dx5 cell line; test: Selective toxicity (ratio of IC50 in MES-SA to IC50 in MES-SA/Dx5) and activity index; assay type: cell-based, human
Text: Compounds having P-gp potentiated MDR-selective activity can be characterized by their inhibitory concentration (IC) with regard to a specific cancer cell line. Usually the IC value is given at a certain percentage ratio of non-inhibited molecules or surviving cells. For example an IC20 value of a compound on a cell line means that at this inhibitory concentration of the compound 80% of the cells are killed whereas 20% of the cells are still viable. A further characteristic of MDR-selective drugs is the selectivity ratio (SR), which is the ratio of the IC value measured in a non-multidrug resistant cell line to (i.e. divided by) the IC value measured in the corresponding transformed, multidrug-resistant cell line. The inverse value, the resistance ratio (RR) is calculated as the ratio of a compound's IC value against a multidrug resistant cell line divided by the parallel IC value of the same compound against a control non-multidrug resistant cell line. The Activity Index (AI) is calculated here as the ratio of the compound's selectivity ratio (SR) and the compound's IC50 value against the resistant cell. The AI reflects the level of simultaneous toxicity and selectivity towards multidrug-resistant cancer cells.
as §1, §2
Selectivity towards multidrug-resistant cells is expressed as the ratio of the IC50 value measured in the parental MES-SA and multidrug-resistant MES-SA/Dx5 cell line (Selectivity Ratio, SR).
A novel characteristic of the compounds presented in this invention is that they exert their selective cytotoxicity at low IC50 values. Simultaneous toxicity and selectivity towards multidrug-resistant cancer cells is reflected by the Activity Index (AI) of the compounds, which is the ratio of the selectivity ratio (SR) and the IC50 value on the resistant cell line.

[5] = test system: MDCK II and MDCK II B1 cell lines; test: Selective toxicity towards MDCK II and MDCK II B1 cell lines; assay type: cell-based, canine; settings: MDCK II versus MDCK II B1
Method: as §2
(§3) Data on selective toxicity (expressed as Selectivity Ratio, SR) in two MDR models engineered by retroviral transfection of P-glycoprotein (A431/A431-B1 and MDCK II/MDCK II B1 cell lines) are presented in Table 3 and Table 4.
(§4) A431 is a human epidermoid carcinoma cell line. Its derivative, the A431-B1 cell line expresses P-gp due to retroviral transfection of the mdr1 gene Türk, D. et al (Türk, D. et al., 2009). MDCK II is a canine kidney cell line. MDCK II B1 was created by inserting the mdr1 gene with transposons [Pape V F S et al. 2015] Both cell express P-gp stably, and show a stable MDR phenotype. Culture conditions were identical as in the case of MES-SA cells.

[6] = test system: MES-SA/Dx5 cell line; test: Cytotoxicity, PrestoBlue cell viability assay, MES-SA/Dx5; assay type: cell-based; settings: Homo sapiens
Method: as §1, §2

[7] = test system: A431 and A431-B1 cell lines; test: Selective toxicity in A431 and A431-B1 cell lines; assay type: cell-based, human; settings: A431 versus P-gp-transfected A431-B1
Method: as §2, §3, §4

[8] = WO2010138686 and Türk et al. 2009; cited from earlier work
[9] = test system: MES-SA/Dx5 cells; test: Sensitivity of MES-SA/Dx5 cells to doxorubicin after a single treatment; assay type: cell-based, human; settings: after treatment with a single dose (FIG. 3)
Text: The above treatment with compounds of the general Formula I results in a new, stable phenotype, with the complete resensitization of cells to conventional chemotherapy consisting of P-glycoprotein substrates such as doxorubicin (FIG. 3).
Curves show the sensitivity of MES-SA/Dx5 cells (P-gp overexpressing cell line established from MES-SA) to doxorubicin before and after treatment with a single dose of a state of the art compound (NSC693872) and two compounds relating to this invention (Example compounds No. 9 and No. 17). The sensitivity of MES-SA cells is shown as a reference (P-gp-negative parental cell line). […] (Values indicate the IC50 values (μM) derived from the cytotoxicity curves).

[10] = test system: ABCB1-overexpressing and parental HEK293 cells; settings: cited from earlier work
[11] = MES-SA / MES-SA/Dx5, without tariquidar (Table 5)
[12] = MES-SA/Dx5 (Table 2b), read-out: IC50 (μM) Dx5
[13] = Mes-sa/Dx5 cell line, PrestoBlue assay, 72 hours (Table 1), read-out: IC50
[14] = multidrug-resistant MES-SA/Dx5 cell line (Table 2a), read-out: IC50 (nM) in MES-SA/Dx5 cell line

COc1ccc(CNCc2cc(Br)c3cccnc3c2O)cc1OC [Example 25, 5-Bromo-7-(((3,4-dimethoxybenzyl)amino)methyl)quinolin-8-ol]
melting point: 133 to 136 °C
Fraction of P-gp-negative cells (P3) in the population [1]: 92.30%
Fraction of P-gp-positive cells (P4) in the population [1]: 7.70%
SR (TQ) [2]: 1.6
IC50 [3]: 2910 nM
SR ([4]; MES-SA / MES-SA/Dx5 (Table 2b)): 22.3
SR [4, 11]: 22.3
Selectivity Ratio (SR) (MDCK II/MDCK II B1) [5]: 9.4
IC50 [6, 12]: 0.13 µM
IC50 [6, 13]: 0.131 µM
IC50 [6, 14]: 0.131 µM

COc1ccc(CNCc2cc([N+](=O)[O-])c3cccnc3c2O)cc1 [Example 27, 7-(((4-Methoxybenzyl)amino)methyl)-5-nitroquinolin-8-ol]
Selectivity Ratio (SR) (A431/A431-B1) [7]: 12.6
melting point: 191 to 193 °C
SR (TQ) [2]: 1.6
IC50 [3]: 6090 nM
SR ([4]; MES-SA / MES-SA/Dx5 (Table 2b)): 19.9
SR [4, 11]: 19.9
Selectivity Ratio (SR) (MDCK II/MDCK II B1) [5]: 8.0
IC50 [6, 12]: 0.31 µM
IC50 [6, 14]: 0.31 µM

CCN(CC)Cc1ccc2cccnc2c1O [NSC693872, 7-(N,N-diethylaminomethyl)quinolin-8-ol, reference compound]
selectivity [8]: ~3.90
Selectivity Ratio (SR) (A431/A431-B1) [7]: 1.9
Fraction of P-gp-negative cells (P3) in the population [1]: 7.8%
Fraction of P-gp-positive cells (P4) in the population [1]: 92.2%
Loss of P-gp expression in MES-SA/Dx5 cells [1]: insignificant loss
SR (TQ) [2]: 2.6
Selective toxicity in the presence of P-gp inhibitors [2]: retain a partial selective toxicity
IC50 [3]: 7810 nM
SR ([4]; MES-SA / MES-SA/Dx5 (Table 2b)): 4.9
SR [4, 11]: 4.9
Selectivity Ratio (SR) (MDCK II/MDCK II B1) [5]: 3.1
IC50 [6, 12]: 1.58 µM
IC50 [6, 13]: 1.58 µM
IC50 [6, 14]: 1.58 µM
Resensitization of MES-SA/Dx5 cells to doxorubicin [9]: not sufficient to influence the resistance of the cells to doxorubicin

C/C(=N\Nc1ccc2ccc(CN3CCCCC3)c(O)c2n1)c1ccccn1 [Example 3, (E/Z)-7-(Piperidin-1ylmethyl)-2-(2-(1-(pyridin-2-yl)ethylidene)hydrazinyl)quinolin-8-ol]
Selectivity Ratio (SR) (A431/A431-B1) [7]: 14.4
melting point: 69 to 71 °C
Fraction of P-gp-negative cells (P3) in the population [1]: 88.6%
Fraction of P-gp-positive cells (P4) in the population [1]: 11.40%
SR (TQ) [2]: 1.5
IC50 [3]: 11300 nM
SR [4, 11]: 16.2
Selectivity Ratio (SR) (MDCK II/MDCK II B1) [5]: 9.5
IC50 [6, 14]: 0.727 µM

Cl.Oc1c(CN2CCCC2)ccc2cccnc12 [NSC693871, 7-(pyrrolidin-1-ylmethyl)quinolin-8-ol hydrochloride, reference compound]
selectivity [8]: about 8.48
Selectivity Ratio (SR) (A431/A431-B1) [7]: 3.8
Fraction of P-gp-negative cells (P3) in the population [1]: 9.1%
Fraction of P-gp-positive cells (P4) in the population [1]: 90.9%
Loss of P-gp expression in MES-SA/Dx5 cells [1]: insignificant loss
SR (TQ) [2]: 1.4
Selective toxicity in the presence of P-gp inhibitors [2]: retain a partial selective toxicity
IC50 [3]: 6250 nM
SR ([4]; MES-SA / MES-SA/Dx5 (Table 2b)): 4.2
SR [4, 11]: 4.2
Selectivity Ratio (SR) (MDCK II/MDCK II B1) [5]: 4.4
IC50 [6, 12]: 1.47 µM
IC50 [6, 13]: 1.47 µM
IC50 [6, 14]: 1.47 µM
selectivity [10]: ~10

Oc1c(C2NCCc3sccc32)cc(Cl)c2cccnc12 (stereo not drawn) [Example 17, 5-Chloro-7-(4,5,6,7-tetrahydrothieno[3,2-c]pyridin-4-yl)quinolin-8-ol]
Selectivity Ratio (SR) (A431/A431-B1) [7]: 12.6
Resensitization of MES-SA/Dx5 cells to doxorubicin [9]: sufficient to resensitize MES-SA/Dx5 cells to doxorubicin

COc1ccc(CNCc2cc(Cl)c3cccnc3c2O)c(OC)c1 [Example 26, 5-Chloro-7-(((2,4-dimethoxybenzyl)amino)methyl)quinolin-8-ol]
Selectivity Ratio (SR) (A431/A431-B1) [7]: 11.2
melting point: 136 to 139 °C
SR (TQ) [2]: 1.7
IC50 [3]: 2260 nM
SR ([4]; MES-SA / MES-SA/Dx5 (Table 2b)): 17.6
SR [4, 11]: 17.6
Selectivity Ratio (SR) (MDCK II/MDCK II B1) [5]: 8.0
IC50 [6, 12]: 0.13 µM
IC50 [6, 13]: 0.133 µM
IC50 [6, 14]: 0.13 µM

COc1ccc(CNCc2cc([N+](=O)[O-])c3cccnc3c2O)cc1OC [Example 30, 7-(((3,4-Dimethoxybenzyl)amino)methyl)-5-nitroquinolin-8-ol]
Selectivity Ratio (SR) (A431/A431-B1) [7]: 11.5
melting point: 204 to 206 °C
SR (TQ) [2]: 1.3
IC50 [3]: 23800 nM
SR [4, 11]: 19.3
Selectivity Ratio (SR) (MDCK II/MDCK II B1) [5]: 16.1
IC50 [6, 14]: 1.22 µM
